Experimental findings from PubChem BioAssay AID1259408 (Genetic Toxicology Data Bank (GENE-TOX), 2018) are described below.

In this data set the test system is GENE-TOX genotoxicity assays, various organisms and cells. The experiment in a line: GENE-TOX mutagenicity studies. Particulars: for call: Assay Type: In vivo carcinogenicity studies.
Setting [1] is: Species/Cell Type: Neurospora crassa, Assay Type: Forward gene mutation, Assay Code: NEF+, Evaluation Type: Evaluation A (Pre-1980).
Where [2] appears, read: Species/Cell Type: Nonhuman, Assay Code: CCGT, Evaluation Type: Evaluation A (Pre-1980).
[3] abbreviates: Species/Cell Type: Saccharomyces cerevisiae, Assay Type: Mitotic recombination or gene conversion, Assay Code: YEH-, Evaluation Type: Evaluation A (Pre-1980).
Setting [4] is: Species/Cell Type: Salmonella typhimurium (one or more of the five standard strains: TA98, TA100, TA1535, TA1537, and TA1538), Assay Type: Histidine reverse gene mutation, Ames assay, Assay Code: SAL+, Evaluation Type: Evaluation A (Pre-1980).
[5] abbreviates: Species/Cell Type: Bacillus subtilis (H17 vs M45), Assay Type: Rec-assay, spot test, DNA effects (bacterial DNA repair), Assay Code: REWT, Evaluation Type: Evaluation A (Pre-1980).
Setting [6] is: Species/Cell Type: Salmonella typhimurium (one or more of the five standard strains: TA98, TA100, TA1535, TA1537, and TA1538), Assay Type: Histidine reverse gene mutation, Ames assay, Assay Code: SALT, Evaluation Type: Evaluation A (Pre-1980).
Where [7] appears, read: Species/Cell Type: Escherichia coli WP2 UVRA, Assay Type: Tryptophan reverse gene mutation, Assay Code: WPU+D, Dose Response: With dose response, Evaluation Type: Evaluation A (Pre-1980).
The mark [8] stands for this setting: Species/Cell Type: Fischer rat embryo (RLV/1706) cells, Assay Type: Cell transformation, viral enhanced, Assay Code: CTR+, Evaluation Type: Evaluation A (Pre-1980).
Setting [9] is: Species/Cell Type: Mammalian polychromatic erythrocytes, Assay Type: Micronucleus test, chromosome aberrations, Assay Code: MNTT, Evaluation Type: Evaluation A (Pre-1980).
The mark [10] stands for this setting: Species/Cell Type: Mouse, Sex: Male, Assay Type: Sperm morphology, Assay Code: SPI-, Evaluation Type: Evaluation A (Pre-1980).
[11] abbreviates: Species/Cell Type: Neurospora crassa, Assay Type: Reverse gene mutation, Assay Code: NER+, Evaluation Type: Evaluation A (Pre-1980).
Setting [12] is: Species/Cell Type: Nonhuman, Assay Code: CCG+, Evaluation Type: Evaluation A (Pre-1980).

Activity calls are given as the source filed them. How the calls were made is not given here.

Regarding `Nc1ncc2[nH]cnc2n1`, the mutagenic call by setting is: (Species/Cell Type: Drosophila melanogaster, Assay Type: Sex-linked recessive lethal gene mutation, Assay Code: SRLT, Evaluation Type: Evaluation A (Pre-1980)) “no conclusion”; (Species/Cell Type: Escherichia coli WP2 UVRA, Assay Type: Tryptophan reverse gene mutation, Assay Code: WPU+, Evaluation Type: Evaluation A (Pre-1980)) “active; positive”; (Species/Cell Type: Mouse lymphoma (L5178Y) cells, Assay Type: Forward gene mutation at the thymidine kinase (TK) locus, chromosome aberrations, Assay Code: L51+, Evaluation Type: Evaluation A (Pre-1980)) “active; positive”; (Species/Cell Type: Mouse, Sex: Female, Assay Type: Spot test, gene mutation, Assay Code: MST+, Evaluation Type: Evaluation A (Pre-1980)) “active; positive”; under setting [1], “active; positive”; (Species/Cell Type: Saccharomyces cerevisiae, Assay Type: Forward gene mutation, Assay Code: YEF+, Evaluation Type: Evaluation A (Pre-1980)) “active; positive”. The call under setting [2] is recorded as “no conclusion”.
In the case of `NC[C@H]1O[C@H](O[C@H]2[C@H](O)[C@@H](O[C@H]3O[C@H](CO)[C@@H](O)[C@H](N)[C@H]3O)[C@H](N)C[C@@H]2N)[C@H](N)[C@@H](O)[C@@H]1O`, under setting [3], the mutagenic call was “inactive; negative”.
On to `O=C(c1ccccc1)C(O)c1ccccc1` (centres undefined), for which the call (Species/Cell Type: Nonhuman, Assay Code: CCG-L, Evaluation Type: Evaluation A (Pre-1980)) is “inactive; negative”.
For the compound `O=[N+]([O-])c1ccc(O/N=C/c2cc(Br)c(O)c(Br)c2)c([N+](=O)[O-])c1`, the mutagenic call (Species/Cell Type: Saccharomyces cerevisiae, Assay Type: Mitotic recombination or gene conversion, Assay Code: YEC-, Evaluation Type: Evaluation A (Pre-1980)) was “inactive; negative”.
Consider `O=C1Nc2ccc([N+](=O)[O-])cc2C1=O`, for which, under setting [4], the mutagenic call is “active; positive”.
Turning to `Nc1c(N=Nc2ccc([N+](=O)[O-])cc2)c(S(=O)(=O)O)cc2cc(S(=O)(=O)O)c(N=Nc3ccccc3)c(O)c12`, the mutagenic call under setting [5] was “no conclusion”.
As for `COc1cc2c3cc1Oc1cc(ccc1O)C[C@@H]1c4c(cc(OC)c(O)c4Oc4ccc(cc4)C[C@@H]3N(C)CC2)CC[N+]1(C)C`, the mutagenic call is listed as “no conclusion” (Species/Cell Type: Escherichia coli polA (W3119 vs P3478), Assay Type: Rec-assay, DNA effects (bacterial DNA repair), Assay Code: RE1T, Evaluation Type: Evaluation A (Pre-1980)) and “no conclusion” under setting [6].
Regarding `CN=C1CN(O)C(c2ccccc2)=c2cc(Cl)ccc2=N1`, the mutagenic call runs as follows: (Species/Cell Type: Mammalian polychromatic erythrocytes, Assay Type: Micronucleus test, chromosome aberrations, Assay Code: MNT+, Evaluation Type: Evaluation B (Post-1980)) “active; positive”; (Species/Cell Type: Saccharomyces cerevisiae, Assay Type: Mitotic recombination or gene conversion, Assay Code: YEC-*, Activation: With metabolic activation, Evaluation Type: Evaluation A (Pre-1980)) “inactive; negative”; under setting [6], “no conclusion”; (Species/Cell Type: Salmonella typhimurium, Assay Type: Forward and reverse gene mutation, host-mediated assay, Assay Code: HMAT, Evaluation Type: Evaluation A (Pre-1980)) “no conclusion”.
Regarding `NC(=O)N/N=C/c1ccc([N+](=O)[O-])o1`, the mutagenic call runs as follows: (Species/Cell Type: Bacillus subtilis (H17 vs M45), Assay Type: Rec-assay, spot test, DNA effects (bacterial DNA repair), Assay Code: REW+, Evaluation Type: Evaluation A (Pre-1980)) “active; positive”; (Species/Cell Type: Chinese hamster ovary (CHO) cells, Assay Type: Forward gene mutation at the HPRT locus, Assay Code: CHO-, Evaluation Type: Evaluation B (Post-1980)) “inactive; negative”; (Species/Cell Type: Escherichia coli WP2, Assay Type: Tryptophan reverse gene mutation, Assay Code: WP2T, Evaluation Type: Evaluation A (Pre-1980)) “no conclusion”; under setting [7], “active; positive”; under setting [8], “active; positive”; (Species/Cell Type: Human diploid fibroblasts, Assay Type: Unscheduled DNA synthesis (UDS) in vitro, DNA effects, Assay Code: UDH-, Evaluation Type: Evaluation A (Pre-1980)) “inactive; negative”. Moreover, the mutagenic call runs as follows: under setting [9], “no conclusion”; under setting [10], “inactive; negative”; under setting [1], “active; positive”; under setting [11], “active; positive”; (Species/Cell Type: Nonhuman bone marrow, Assay Type: Chromosome aberrations, in vivo, Assay Code: CY#-, Evaluation Type: Evaluation A (Pre-1980)) “inactive; negative”; under setting [4], “active; positive”. Also, the call (Species/Cell Type: Nonhuman, Assay Code: CCG+L, Evaluation Type: Evaluation A (Pre-1980)) was “active; positive”.
Consider `O=C1CN(CO)C(=O)CN1CO`, for which, for the setting “Species/Cell Type: Arabidopsis species, Assay Type: Gene mutation, Assay Code: ARM-, Evaluation Type: Evaluation A (Pre-1980)”, the mutagenic call is “inactive; negative”.
For the compound `Cc1ccc(S(=O)(=O)NC(=O)NN2CCCCCC2)cc1`, the mutagenic call (Species/Cell Type: Nonhuman, Assay Type: Sister-chromatid exchange (SCE) in vivo, Assay Code: SC3T, Evaluation Type: Evaluation B (Post-1980)) is on record as “no conclusion”.
On to `Cc1ccccc1N`, for which the mutagenic call by setting is: (Species/Cell Type: Escherichia coli polA (W3119 vs P3478), Assay Type: Rec-assay, DNA effects (bacterial DNA repair), Assay Code: RE1+, Evaluation Type: Evaluation A (Pre-1980)) “active; positive”; under setting [8], “active; positive”; under setting [9], “no conclusion”; under setting [10], “inactive; negative”; (Species/Cell Type: Nonhuman, Assay Type: Sister-chromatid exchange (SCE) in vitro, Assay Code: SC2+D, Dose Response: With dose response, Evaluation Type: Evaluation B (Post-1980)) “active; positive”; (Species/Cell Type: Nonhuman, Assay Type: Sister-chromatid exchange (SCE) in vivo, Assay Code: SC3+, Evaluation Type: Evaluation B (Post-1980)) “active; positive”. Besides, the mutagenic call is, setting by setting: under setting [3], “inactive; negative”; under setting [6], “no conclusion”. Besides, the call under setting [12] was “active; positive”.
Turning to `O=C1c2ccccc2C(=O)c2c1ccc(O)c2O`, the mutagenic call runs as follows: (Species/Cell Type: Allium cepa, Assay Type: Chromosome aberrations, Assay Code: ALC+, Evaluation Type: Evaluation A (Pre-1980)) “active; positive”; under setting [5], “no conclusion”.
In the case of `C[CH2][Hg][N](c1ccccc1)S(=O)(=O)c1ccc(C)cc1`, for the setting “Species/Cell Type: Drosophila melanogaster, Assay Type: Sex-linked recessive lethal gene mutation, Assay Code: SRL+, Evaluation Type: Evaluation A (Pre-1980)”, the mutagenic call is “active; positive”.
In the case of `CN(C)CCOc1ccc2c(c1)CC/C(=C\c1ncc([N+](=O)[O-])n1C)C2=O`, the mutagenic call was “active; positive” under setting [1] and “active; positive” under setting [11].
With `CCN(CC)CCNc1ccc(C(=O)O)c2sc3ccccc3c(=O)c12`, the mutagenic call under setting [8] is “active; positive”.
Take `O=C(O)c1ccc(C(=O)O)cc1`: the mutagenic call (Species/Cell Type: Syrian hamster embryo (SA7/SHE) cells, Assay Type: Cell transformation, viral enhanced, Assay Code: CT7-, Evaluation Type: Evaluation A (Pre-1980)) was “inactive; negative”.
Regarding `N#CO`, the mutagenic call (Species/Cell Type: Arabidopsis species, Assay Type: Gene mutation, Assay Code: ARM+, Evaluation Type: Evaluation A (Pre-1980)) was “active; positive”.
On to `CN(C)CC/C=C1/c2ccccc2Sc2ccc(Cl)cc21`, for which the mutagenic call (Species/Cell Type: Nonhuman, Assay Type: Sister-chromatid exchange (SCE) in vitro, Assay Code: SC2+D, Dose Response: With dose response, Evaluation Type: Evaluation A (Pre-1980)) was “active; positive”.
For the compound `CC(Cl)(Cl)Cl`, the mutagenic call is “active; positive” under setting [8]; “no conclusion” under setting [9]; “inactive; negative” under setting [10]; “active; positive” (Species/Cell Type: Nonhuman, Assay Type: Sister-chromatid exchange (SCE) in vitro, Assay Code: SC2+, Evaluation Type: Evaluation B (Post-1980)). For the same compound, the call under setting [2] is given as “no conclusion”.
As to `Oc1ccc2ncccc2c1`, the mutagenic call (Species/Cell Type: Salmonella typhimurium (one or more of the five standard strains: TA98, TA100, TA1535, TA1537, and TA1538), Assay Type: Histidine reverse gene mutation, Ames assay, Assay Code: SAL-, Evaluation Type: Evaluation A (Pre-1980)) was “inactive; negative”.
Take `CCN(CC)CCCNC(=O)C(=O)N/N=C/c1ccc([N+](=O)[O-])o1`: the mutagenic call under setting [7] was “active; positive”.
As for `CC(COc1ccc(C(C)(C)C)cc1)OS(=O)OCCCl` (centres undefined), the call under setting [12] is “active; positive”.
